Here are results for 4 molecules from patent US20110135574A1, “METHODS OF TREATING KIDNEY DISEASE” (priority 2009, published 2011).

For assay [1], the target named is T1, TRPC5 and TRPC6 channels in AT1R podocytes (Rattus norvegicus, UniProt Q99N78).
T1 construct: endogenous in cells; host or cells: immortalized rat podocytes stably expressing the AngII Type 1 Receptor (AT1R podocytes)
T1 sequence (Q99N78 1-930): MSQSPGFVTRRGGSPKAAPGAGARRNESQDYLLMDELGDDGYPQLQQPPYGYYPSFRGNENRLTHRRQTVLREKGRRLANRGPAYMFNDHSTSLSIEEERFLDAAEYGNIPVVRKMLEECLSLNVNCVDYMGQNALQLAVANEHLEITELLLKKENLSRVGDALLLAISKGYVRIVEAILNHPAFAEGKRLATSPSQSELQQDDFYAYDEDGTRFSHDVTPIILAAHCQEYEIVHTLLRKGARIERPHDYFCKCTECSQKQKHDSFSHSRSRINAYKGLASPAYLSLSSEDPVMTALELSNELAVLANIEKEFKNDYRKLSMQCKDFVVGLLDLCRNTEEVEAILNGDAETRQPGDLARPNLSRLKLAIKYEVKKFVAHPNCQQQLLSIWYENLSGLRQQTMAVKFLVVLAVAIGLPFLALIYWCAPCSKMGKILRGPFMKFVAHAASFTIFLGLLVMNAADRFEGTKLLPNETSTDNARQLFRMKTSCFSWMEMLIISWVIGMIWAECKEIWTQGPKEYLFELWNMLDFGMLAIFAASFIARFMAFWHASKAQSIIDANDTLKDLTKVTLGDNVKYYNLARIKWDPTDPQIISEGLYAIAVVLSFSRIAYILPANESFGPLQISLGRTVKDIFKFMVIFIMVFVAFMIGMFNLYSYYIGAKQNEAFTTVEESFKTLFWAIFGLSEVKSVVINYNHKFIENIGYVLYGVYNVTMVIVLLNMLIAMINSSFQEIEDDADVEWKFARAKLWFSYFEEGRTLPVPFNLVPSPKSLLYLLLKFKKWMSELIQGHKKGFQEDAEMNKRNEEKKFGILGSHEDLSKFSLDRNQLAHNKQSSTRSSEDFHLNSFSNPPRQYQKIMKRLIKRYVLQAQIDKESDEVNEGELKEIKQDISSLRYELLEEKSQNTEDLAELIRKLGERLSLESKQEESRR
The experiment in a line: Outside-out single channel recordings of TRPC5-like and TRPC6-like conductances. The conditions noted are these: La3+ 100 μM; in words. It is filed as cell-based. How it is done:
(§1) Electrophysiology. Patch-clamp electrophysiology (Axopatch 200B amplifier, Axon Instruments, CA) was performed in the whole-cell configuration. Briefly, fully differentiated podocytes were plated on glass coverslips at low density and placed in the recording chamber. The patch pipettes with resistances of 3-4 MΩ were pulled from borosilicate glass with a P-97 puller (Sutter Instrument) and filled with a solution containing (in mM): 135 CH3SO3Cs, 10 CsCl, 3 MgATP, 0.2 NaGTP, 0.2 EGTA, 0.13 CaCl2, and 10 HEPES, pH 7.3 with CsOH. The bath solution contained (in mM): 135 CH3SO3Na, 5 CsCl, 2 CaCl2, 1 MgCl2, 10 HEPES, and 10 Glucose, pH 7.4 with NaOH. Angiotensin (500 nM) was applied to the bath solution. Whole-cell currents were recorded from −100 mV to 100 mV voltage ramps over 150 ms and a holding potential of zero. For single channel recordings in the outside-out configuration, we utilized a voltage step protocol from −100 mV to +100 mV delivered at 20 mV intervals and a holding potential of −60 mV. Average pipette resistance filled with pipette solution was 5-10 MΩ. Data were sampled at 10 kHz and filtered at 5 kHz. […] Ensemble averages were expressed as open channel probabilities (average current divided by unitary current amplitude and # of channels in each patch) and plotted as histograms. All data were acquired at room temperature and analyzed using pClamp 10 (Axon Instruments, CA).

In assay [2] the target is T2, TRPC5 and TRPC6 channels in AT1R podocytes (Rattus norvegicus, UniProt Q8VD38).
T2 construct: endogenous in cells; host or cells: immortalized rat podocytes stably expressing the AngII Type 1 Receptor (AT1R podocytes)
T2 sequence (Q8VD38 1-974): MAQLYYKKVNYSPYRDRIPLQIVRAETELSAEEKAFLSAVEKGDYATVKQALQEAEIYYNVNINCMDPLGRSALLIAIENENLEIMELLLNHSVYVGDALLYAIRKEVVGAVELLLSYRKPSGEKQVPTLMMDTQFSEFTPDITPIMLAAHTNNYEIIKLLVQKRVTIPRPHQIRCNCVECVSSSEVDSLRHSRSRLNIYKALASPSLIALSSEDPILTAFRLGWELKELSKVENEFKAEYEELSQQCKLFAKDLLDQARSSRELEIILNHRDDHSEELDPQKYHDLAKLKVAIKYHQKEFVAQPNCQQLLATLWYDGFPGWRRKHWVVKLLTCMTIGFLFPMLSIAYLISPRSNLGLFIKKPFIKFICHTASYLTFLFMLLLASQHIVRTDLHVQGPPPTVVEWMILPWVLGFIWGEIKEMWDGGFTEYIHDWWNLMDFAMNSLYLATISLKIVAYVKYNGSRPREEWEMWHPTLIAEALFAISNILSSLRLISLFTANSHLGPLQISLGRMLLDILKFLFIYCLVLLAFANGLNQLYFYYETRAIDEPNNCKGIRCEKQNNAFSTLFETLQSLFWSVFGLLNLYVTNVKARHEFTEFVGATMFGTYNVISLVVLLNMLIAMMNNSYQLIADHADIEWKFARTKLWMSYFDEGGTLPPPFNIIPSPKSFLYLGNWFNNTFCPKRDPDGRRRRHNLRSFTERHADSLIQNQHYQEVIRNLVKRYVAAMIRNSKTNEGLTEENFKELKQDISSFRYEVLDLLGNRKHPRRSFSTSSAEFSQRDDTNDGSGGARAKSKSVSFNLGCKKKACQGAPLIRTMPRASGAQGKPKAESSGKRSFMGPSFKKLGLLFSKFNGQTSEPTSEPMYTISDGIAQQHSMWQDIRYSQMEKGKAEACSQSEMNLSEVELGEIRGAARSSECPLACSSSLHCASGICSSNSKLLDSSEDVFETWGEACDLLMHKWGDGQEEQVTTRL
The description is as above. It is filed as cell-based. As to conditions: La3+ 100 μM; after AngII 500 nM; Vstep +100 mV. As for the experimental part:
as §1

The test system of assay [3] is AT1R podocytes. In words: Stress fiber (phalloidin) and focal adhesion (paxillin) quantification after AngII, AT1R podocytes. As to conditions: in words. It is filed as cell-based, rat. As for the experimental part: (§2) Podocyte cell culture. Wild-type mouse podocytes (passages 7 to 18) derived from the Immortomouse stably expressing the temperature-sensitive SV40 T-antigen were generously provided by Peter Mundel (University of Miami School of Medicine, FL) and cultured as previously described (Asanuma et al., Nat Cell Biol 8, 485-491, 2006). Briefly, podocytes were plated on collagen-coated cell culture dishes (100 μg/ml Type I Collagen, Gibco Invitrogen) and maintained at 33° C. in a humidified atmosphere of 5% CO2 in RPMI1640 medium supplemented with 10% heat-inactivated FBS, 100 U/ml Penicillin, 100 μg/ml streptomycin, and 100 U/ml Interferon-γ (IFN-γ). Under these permissive culture conditions, the podocytes remain in the undifferentiated, replication-competent state. Podocytes were thermoshifted to 38° C. and maintained in IFN-γ-free culture medium to induce growth arrest and differentiation. Podocyte-specific markers for differentiation are expressed within 7 days of culture in these non-permissive conditions. […]
(§3) Immunocytochemistry, wound healing assays, and confocal imaging. […] For double immunostaining, podocytes were incubated with antibodies to Paxillin (Chemicon International) and detected with Alexa-488-conjugated secondary antibodies (Molecular Probes). […]

Assay [4] has as its system AT1R podocytes. In words: Fluo-3 calcium imaging of AngII-evoked Ca2+ transients. Format: cell-based, rat. The conditions noted are these: Losartan 200 nM; AngII 500 nM. How it is done:
as §2
Calcium imaging. […] Fluorescence intensity was normalized to maximal fluorescence obtained at the end of each experiment by the application of 100 μM Ionomycin, based on the formula F=(Fmax (angiotensin)−Fmin)/(Fmax (ionomycin)−Fmin). Measurements were analyzed using Zeiss Pascal Software and Microsoft Xcel, and images were prepared in Adobe Photoshop and NIH Image J.

The test system of a further assay is podocytes. In words: Stress fiber quantification in podocytes, TRPC/Rho GTPase coupling (FIG. 4E). It is filed as cell-based. As for the experimental part: Lentivirus construction and shRNA-mediated gene silencing. Podocytes were exposed to lentivirus encoding validated shRNA sequences (Open Biosystems) for 24 hours in cell culture medium supplemented with 4 μg/ml polybrene (Chemicon International). For all experiments, parallel infections with the enhanced GFP virus in the VVPW vector, scrambled shRNA, or polybrene alone were used as control. All experiments were performed at least 48 hours post-infection of podocytes that were thermoshifted 5-7 days prior to the assay. Lentiviral particles pseudotyped with the vesicular stomatitis virus glycoprotein (VSV-G) were constructed according to the manufacturer's protocol. Briefly, low-passage HEK293T cells were transfected with the pLKO.1 plasmid encoding the shRNA, the packaging plasmid pMDG.2 ΔR8.91, and the envelope plasmid pCMV-VSV-G at a ratio of 10:10:1 using the Minis Trans-IT LT-1 transfection reagent. Enhanced GFP encoded in the pLVX vector was used to assess transfection efficiency. The medium was replaced with the virus harvest media 18 hours post-transfection, and viral particles were collected twice at 24 hour intervals thereafter. […]
as §3

The test system of assay [5] is AT1R podocytes. In words: Whole-cell patch-clamp recording of AngII-evoked TRPC-like current. Format: cell-based, rat. The conditions noted are these: AngII 500 nM. How it is done: as §1
For orientation: The patch-clamp technique gives a direct electrical read-out from membranes.

“Also recorded” adds a separate entry of the source.

For `[La+3]` [La^3+, Lanthanum], the “effect on AngII-evoked single channel conductances [2] and [3] / single channel activity” value in assay [1] is “abolished; also recorded: suppressed”. Also, the “single channel conductance [4] unmasked” value in assay [2] amounted to 33 pS.

For the molecule `CCCCc1nc(Cl)c(CO)n1Cc1ccc(-c2ccccc2-c2nn[nH]n2)cc1` [Losartan], the stress fiber formation result in the assay on AT1R podocytes [3] (Losartan 200 nM prior to AngII exposure) is recorded as “induced robust stress fiber formation”. For the same molecule, the “focal adhesions (Paxillin immunostaining)” value in the assay on AT1R podocytes [3] (Losartan-treated vs AngII-treated controls) is “increase in focal adhesions”. Also, in the assay on AT1R podocytes [4], the “decrease of the amplitude of the AngII-evoked Ca2+ transient” value is on record as “more than 70%”. For the same molecule, the stress fibers with podocytes (cells pre-treated with Losartan, Scr shRNA controls 16±1) is listed as 25±1.

In turn, `C[C@@H](N)[C@H]1CC[C@H](C(=O)Nc2ccncc2)CC1` [Y27632] yielded a stress fibers with podocytes (Y27632 10 μM in TRPC5 depleted cells (22±3 without)) of 6±1.

As to “Angiotensin II (DRVYIHPF; Angiotensin-2; UniProt P01019 25-32, looked up) [AngII]”, the normalized peak current was 20±7 pA/pF in the assay with AT1R podocytes [5] (at +100 mV) and 10±4 pA/pF in the assay with AT1R podocytes [5] (at -100 mV).
